Where two headings read alike, the source gives them in different places. One block for each compound: values may come before it.
Key:
[1] = rat liver microsomal incubations, intrinsic clearance; format: in vitro ADME; conditions: Sprague-Dawley, microsomes, pH 7.4
hURAT1 (SLC22A12) = molecular target: T1, hURAT1 (SLC22A12) (Homo sapiens, UniProt Q96S37); assay: inhibition of 14C-urate uptake in oocytes expressing hURAT1; format: cell-based; conditions: for IC50: hURAT1 IC50 (nM) ± SD, inhibition of 14C-urate uptake in oocytes expressing hURAT1; for fold weaker hURAT1 inhibitor than (1): IC50 compared with (1) (26 nM)
T1 sequence (Q96S37 1-553): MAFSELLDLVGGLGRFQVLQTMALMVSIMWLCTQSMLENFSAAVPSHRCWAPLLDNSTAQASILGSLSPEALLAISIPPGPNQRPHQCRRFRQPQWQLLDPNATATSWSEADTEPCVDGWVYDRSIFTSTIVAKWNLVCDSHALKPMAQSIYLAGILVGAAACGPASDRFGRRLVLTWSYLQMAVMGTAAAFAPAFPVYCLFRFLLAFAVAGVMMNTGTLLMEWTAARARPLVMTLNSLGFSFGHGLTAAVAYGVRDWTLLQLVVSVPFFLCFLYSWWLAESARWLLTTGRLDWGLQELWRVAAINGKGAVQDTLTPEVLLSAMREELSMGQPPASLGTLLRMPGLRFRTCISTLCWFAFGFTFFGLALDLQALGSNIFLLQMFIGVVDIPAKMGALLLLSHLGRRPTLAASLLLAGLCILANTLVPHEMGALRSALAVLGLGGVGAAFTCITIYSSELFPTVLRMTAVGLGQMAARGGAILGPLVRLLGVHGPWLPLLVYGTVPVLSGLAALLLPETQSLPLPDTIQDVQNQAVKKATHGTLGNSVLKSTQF

[2] = rat pharmacokinetics, intravenous; format: in vivo, male Sprague-Dawley rats; conditions: for AUC: male, Sprague-Dawley, rat, whole blood, iv, 0.5 mg/kg
[3] = cited from earlier work

microsomal CLint at 1 µM [1]: 94.8 ± 5.1 µL/min/mg
SMILES: CCc1cc2c(C(=O)c3cc(Br)c(O)c(Br)c3)c(O)ccc2o1 [(25), (3,5-dibromo-4-hydroxyphenyl)(2-ethyl-5-hydroxybenzofuran-4-yl)methanone]

IC50 (hURAT1 (SLC22A12)): 814 ± 160 nM
SMILES: CCc1oc2ccccc2c1C(=O)c1ccc(O)c(Br)c1 [(12), (3-bromo-4-hydroxyphenyl)(2-ethylbenzofuran-3-yl)methanone]

IC50 (hURAT1 (SLC22A12)): 7540 ± 60 nM
SMILES: CCc1oc2ccccc2c1C(=O)c1cc(C)c(O)c(C)c1 [(15), (2-ethylbenzofuran-3-yl)(4-hydroxy-3,5-dimethylphenyl)methanone]

fold weaker hURAT1 inhibitor than (1) (hURAT1 (SLC22A12)): ~ 47 fold
IC50 (hURAT1 (SLC22A12)): 1220 ± 110 nM
SMILES: CCc1oc2ccccc2c1C(=O)c1cc(Br)c(OC)c(Br)c1 [(16), (3,5-dibromo-4-methoxyphenyl)(2-ethylbenzofuran-3-yl)methanone]

microsomal CLint at 1 µM [1]: 44.9 ± 6.6 µL/min/mg
AUC [2]: 2630 ± 250 ng·h/mL
SMILES: CCc1oc2ccc(OC)cc2c1C(=O)c1cc(Br)c(O)c(Br)c1 [(6), (3,5-dibromo-4-hydroxyphenyl)(2-ethyl-5-methoxybenzofuran-3-yl)methanone]

fold weaker hURAT1 inhibitor than (1) (hURAT1 (SLC22A12)): ~ 15 fold
IC50 (hURAT1 (SLC22A12)): 399 ± 56 nM
SMILES: CCc1oc2ccccc2c1C(=O)c1cc(Cl)c(O)c(Cl)c1 [(19), (3,5-dichloro-4-hydroxyphenyl)(2-ethylbenzofuran-3-yl)methanone]

IC50 (hURAT1 (SLC22A12)): 1930 ± 90 nM
SMILES: CCCCc1oc2ccccc2c1C(=O)c1cc(Br)c(O)c(Br)c1 [(18), (2-butylbenzofuran-3-yl)(3,5-dibromo-4-hydroxyphenyl)methanone]

microsomal CLint at 1 µM [1]: 19.7 ± 2.8 µL/min/mg
AUC [2]: 6160 ± 680 ng·h/mL
SMILES: CCc1oc2cc(O)ccc2c1C(=O)c1cc(Br)c(O)c(Br)c1 [(5), (3,5-dibromo-4-hydroxyphenyl)(2-ethyl-6-hydroxybenzofuran-3-yl)methanone]

microsomal CLint at 1 µM [1]: 52 ± 0.1 µL/min/mg
AUC [2]: 940 ± 80 ng·h/mL
SMILES: CCc1oc2ccc(O)cc2c1C(=O)c1cc(Br)c(O)c(Br)c1 [(8), (3,5-dibromo-4-hydroxyphenyl)(2-ethyl-5-hydroxybenzofuran-3-yl)methanone]

microsomal CLint at 1 µM [1]: 207 ± 4.2 µL/min/mg
AUC [2]: 9600 ± 280 ng·h/mL
SMILES: CCc1oc2cc(OC)ccc2c1C(=O)c1cc(Br)c(O)c(Br)c1 [(3), (3,5-dibromo-4-hydroxyphenyl)(2-ethyl-6-methoxybenzofuran-3-yl)methanone]

microsomal CLint at 1 µM [1]: 142 ± 5.5 µL/min/mg
AUC [2]: 5260 ± 810 ng·h/mL
SMILES: CCc1oc2ccc(F)cc2c1C(=O)c1cc(Br)c(O)c(Br)c1 [(9), (3,5-dibromo-4-hydroxyphenyl)(2-ethyl-5-fluorobenzofuran-3-yl)methanone]

microsomal CLint at 1 µM [1]: 51.3 ± 6.7 µL/min/mg
AUC [2]: 9070 ± 590 ng·h/mL
T1/2 ([2]; parent compound, orbital sinus 0.5 mg/kg, blood, n = 3 ± SD): 1.1 ± 0.1 h
SMILES: CCc1oc2ccccc2c1C(=O)c1cc(Br)c(O)c(Br)c1 [(1), (3,5-dibromo-4-hydroxyphenyl)(2-ethylbenzofuran-3-yl)methanone, reference compound]

More lines, now with the values behind:

SMILES: CCc1oc2ccccc2c1C(=O)c1ccc(O)c(F)c1 [(10), (2-ethylbenzofuran-3-yl)(3-fluoro-4-hydroxyphenyl)methanone]
IC50 (hURAT1 (SLC22A12)): 2410 ± 90 nM

SMILES: CCc1oc2ccccc2c1C(=O)c1ccc(O)c(I)c1 [(13), (2-ethylbenzofuran-3-yl)(4-hydroxy-3-iodophenyl)methanone]
IC50 (hURAT1 (SLC22A12)): 1490 ± 80 nM

SMILES: CCc1oc2cc(OC)c(Br)cc2c1C(=O)c1cc(Br)c(O)c(Br)c1 [(4), (5-bromo-2-ethyl-6-methoxybenzofuran-3-yl)(3,5-dibromo-4-hydroxyphenyl)methanone]
microsomal CLint at 1 µM [1]: 23.5 ± 10.9 µL/min/mg

SMILES: CC(C)(C)c1cccc(C(C)(C)C)c1O [2,6-di-tert-butyl-phenol]
pKa ([3]; phenol pKa values ref 11): 10.2

SMILES: CCc1cc2c(C(=O)c3ccc(OC)cc3)cc(Br)c(O)c2o1 [(23), (6-bromo-2-ethyl-7-hydroxybenzofuran-4-yl)(4-methoxyphenyl)methanone]
microsomal CLint at 1 µM [1]: 121 ± 12.2 µL/min/mg

SMILES: CCc1cc2cc(OC)cc(C(=O)c3ccc(OC)cc3)c2o1 [(20), (2-ethyl-5-methoxybenzofuran-7-yl)(4-methoxyphenyl)methanone]
microsomal CLint at 1 µM [1]: 704 ± 12.7 µL/min/mg

SMILES: CCc1oc2ccccc2c1C(=O)c1ccc(O)c(Cl)c1 [(11), (3-chloro-4-hydroxyphenyl)(2-ethylbenzofuran-3-yl)methanone]
IC50 (hURAT1 (SLC22A12)): 874 ± 56 nM

SMILES: CCc1cc2cc(O)cc(C(=O)c3cc(Br)c(O)c(Br)c3)c2o1 [(22), (3,5-dibromo-4-hydroxyphenyl)(2-ethyl-5-hydroxybenzofuran-7-yl)methanone]
microsomal CLint at 1 µM [1]: 454 ± 18.2 µL/min/mg

SMILES: CCc1oc2ccc(OC)cc2c1C(=O)c1ccc(O)cc1 [(2), (2-ethyl-5-methoxybenzofuran-3-yl)(4-hydroxyphenyl)methanone]
microsomal CLint at 1 µM [1]: 412 ± 6.4 µL/min/mg

SMILES: CCc1cc2cc(OC)cc(C(=O)c3cc(Br)c(O)c(Br)c3)c2o1 [(21), (3,5-dibromo-4-hydroxyphenyl)(2-ethyl-5-methoxybenzofuran-7-yl)methanone]
microsomal CLint at 1 µM [1]: 210 ± 5.9 µL/min/mg

SMILES: CCc1cc2c(C(=O)c3cc(Br)c(O)c(Br)c3)cc(Br)c(O)c2o1 [(26), (6-bromo-2-ethyl-7-hydroxybenzofuran-4-yl)(3,5-dibromo-4-hydroxyphenyl)methanone]
microsomal CLint at 1 µM [1]: 34.3 ± 1.2 µL/min/mg

SMILES: O=c1[nH]c(=O)c2[nH]c(=O)[nH]c2[nH]1 [uric acid]
pKa ([3]; in urine): 5.4

SMILES: CCc1oc2cc(Br)c(O)c(Br)c2c1C(=O)c1ccc(OC)cc1 [(7), (4,6-dibromo-2-ethyl-5-hydroxybenzofuran-3-yl)(4-methoxyphenyl)methanone]
microsomal CLint at 1 µM [1]: 286.8 ± 0.9 µL/min/mg

SMILES: CCCCc1oc2ccccc2c1C(=O)c1ccc(O)cc1 [(17), (2-butylbenzofuran-3-yl)(4-hydroxyphenyl)methanone]
hURAT1 inhibition compared with corresponding ethyl analog (hURAT1 (SLC22A12); butyl versus ethyl analog, ethyl analog ref 10): much weaker inhibitor than the corresponding ethyl analog

SMILES: CCc1cc2c(C(=O)c3cc(Br)c(O)c(Br)c3)c(OC)ccc2o1 [(24), (3,5-dibromo-4-hydroxyphenyl)(2-ethyl-5-methoxybenzofuran-4-yl)methanone]
microsomal CLint at 1 µM [1]: 323 ± 10.8 µL/min/mg
